Assay results from US12391646B2, “Using adiponectin receptor agonists to treat inflammation and bone diseases in diabetes” (Trustees of Tufts College, priority 2020, dated 2025).

Key:
[1] = test system: RAW 264.7 cells; experiment: CCK-8 cell viability assay, Example 2; conditions: 2 days, compared with vehicle-treated group
Method: RAW 264.7 cells were treated with receptor activator of nuclear factor KB ligand (RANKL) (100 ng/ml) for 2 days with or without AdipoRon (20 μM) or AdipoAI (5 μM) for another 2 days. […] (C) The CCK-8 analysis of RAW 264.7 cells treated with 20 μM AdipoRon or 5 μM AdipoAI for 48 h. (D) The CCK-8 analysis of RAW 264.7 cells' proliferation at different doses of APR and AdipoAI. Cells were treated with 100 ng/ml RANKL for 2 days with or without AdipoRon (5, 20 μM) or AdipoAI (5, 20 μM) every 2 days for 4 days. […] Data are shown as mean±SD., compared with the vehicle-treated group, *P<0.05. **P<0.01. ***P<0.001.
RAW 264.7 cells (2×10^3 cells/well) were seeded in 96-well plates and treated with or without AdipoRon or AdipoAI for 48 hours in a humidified chamber at 37° C. in 5% CO2 and air. Cell viability was determined with the Cell Counting Kit-8 (CCK-8 kit, Dojindo, Santa Clara, CA, USA) following the manufacturer's recommendations. Briefly, CCK-8 solution (10 μL) was added to each well and cells were incubated in dark for 3 hours. Cell viability was determined by measuring the absorbance at 450 nm.

[2] = test system: AdipoRs; conditions: cited from earlier work
[3] = test system: LPS-induced BMMs; experiment: ELISA of IL-6 and IL-1β in supernatants of LPS-induced BMMs; type: cell-based, C57BL/6J mice; conditions: AdipoAI 5 μM 24 h then LPS 6 h
Method: (§1) FIG. 2 AdipoAI suppresses LPS-stimulated inflammatory responses in macrophages. (a) Raw264.7 cells or (b) BMMs were pretreated with APR (20 μM) or AdipoAI (5 μM) for 24 h followed by incubation with LPS (100 ng/mL) for additional 6 h for the measurement of IL-6 and IL-1β in supernatants by ELISA. Data were expressed as the mean±SEM at five biological independent experiments. One-way ANOVA test for multiple-group comparisons, * vs. LPS group, *P<0.05, significant differences between each indicated group. (c) PEMs were isolated from C57BL/6J mice (n=5 mice/group) were injected i.p. with ImL 4% thioglycolate solution or AdipoAI (25 mg/kg) for the measurement of IL-6 and IL-1β. The amounts of IL-6 and IL-1β in supernatant were measured by ELISA. Data were expressed as the mean±SEM (n=5). Two-tailed Student's t-test for two groups, *P<0.05, significant differences between each indicated group. (d-f) Impact of AdipoAI on basal (d) and LPS-induced expression of an array of proinflammatory cytokines, chemokines, and receptors (e,f) in Raw264.7 cells (4 groups and 3 biological replicates/group). Data analyses were performed according to the manufacturer's instructions with their web-based software package (www.qiagen.com/us/shop/genes-and-pathways/data-analysis-center overview-page/). […]

[4] = test system: LPS-induced Raw264.7 cells; experiment: ELISA of IL-6 and IL-1β in supernatants of LPS-induced Raw264.7 cells; type: cell-based; conditions: AdipoAI 5 μM 24 h then LPS 6 h
Method: as §1

[5] = test system: peritoneal macrophages (PEMs); experiment: IL-6 and IL-1β production by peritoneal macrophages isolated from AdipoAI-treated mice; type: in vivo, C57BL/6J mice; conditions: i.p., 20 mg/kg body weight as printed
[6] = test system: AdipoR1/2 mRNA expression; experiment: qRT-PCR of AdipoR1/2 mRNA in Raw264.7 cells; type: cell-based; conditions: 24 h
Method: FIG. 10 Raw264.7 cells were treated with different doses of AdipoAI for 24 h to measure AdipoR1/2 mRNA expression by qRT-PCR. Data were expressed as the mean±SEM at five biological independent experiments. One-way ANOVA test for multiple-group comparisons, * vs. control group. *P<0.05, significant differences between each indicated group.
Total RNA of cells was extracted using Quick-RNA Miniprep Kit (ZYMO Research, Irvine, CA, USA) and total RNA from mouse tissues was prepared with TriZol reagent (Life Technologies) according to the manufacturer's instructions followed by qRT-PCR assays as described previously (L. Zhang et al., 2014). 1 μg of total RNA was used for reverse transcription using the M-MLV Reverse Transcriptase (Thermo Scientific, Waltham, MA, USA) according to the manufacturer's protocol using PowerUp SYBR Green Master Mix (Thermo Scientific) on a Bio-Rad iQ5 thermal cycler (Bio-Rad Laboratories, Hercules, CA, USA). Differences in expression were evaluated by the comparative cycle threshold method using GAPDH or β-actin as a control. The primer sequences used for the qRT-PCR experiments are listed in supplemental Table 1.

[7] = test system: APPL1/MyD88 interaction; experiment: Co-immunoprecipitation of AdipoR1, APPL1 and MyD88 in Raw264.7 cells; type: cell-based; conditions: AdipoAI (5 μM) and LPS-treated cells compared to control cells
Method: FIG. 6 Involvement of APPL1/MyD88 interaction in the anti-inflammatory effects of AdipoAI in macrophages. (a) RAW 264.7 cells were transfected with siRNA targeting MyD88, c-Maf or scrambled control siRNA for 24 h, followed by stimulation with LPS for 6 h. Transfection efficiency of siRNA and mRNA expression levels of proinflammatory cytokines were measured by qPCR and normalized with GAPDH mRNA levels. Data were expressed as the mean±SEM at five biological independent experiments. One-way ANOVA test for multiple-group comparisons, * vs. LPS+Scrambled group, *P<0.05, significant differences between each indicated group. ns, not significant. (b) Raw264.7 cells were transfected with siRNA targeting MyD88 or scrambled control siRNA for 24 h, followed by stimulation with LPS for 30 min for measurement of related proteins. Representative images are shown along with β-actin as an internal loading control and densitometric analysis. Densitometry values-MyD88: 1.00, 0.24, 1.20, 0.33; pIRAK4: 1.00, 0.00; p-P38: 1.00, 0.11. […] Proteins immunoprecipitated with the anti-MyD88 antibody were analyzed by immunoblotting with antibodies for MyD88, APPL1, and AdipoR1. […]
The RAW 264.7 macrophages were seeded at a density of 6×10^6 cells per 100 mm dish. […] The immunoprecipitates were washed with lysis buffer and further analyzed by polyacrylamide gel electrophoresis and Western blot analyses. […]

Compound | number of RAW 264.7 cells (CCK-8) at 20 μM [1] | binding affinity for AdipoRs [2] | IL-6 and IL-1β protein levels (ELISA) [3] | IL-6 and IL-1β protein levels (ELISA) [4] | production of IL-6 and IL-1β by PEMs from treated mice [5] | mRNA levels of AdipoRs [6] | interaction of APPL1 with MyD88 (Co-IP) [7]
O=C(COc1ccc(C(=O)c2ccccc2)cc1)NC1CCN(Cc2ccccc2)CC1 [AdipoRon, reference compound] | did not reduce the number of RAW 264.7 cells | low binding affinity for AdipoRs |  |  |  |  | 
COc1ccc(CN2CCC(NC(=O)COc3ccc(C(=O)c4ccc(Cl)cc4)cc3)CC2)cc1 [Compound 3] |  |  | decreased IL-6 and IL-1β protein levels | decreased IL-6 and IL-1β protein levels | reduced IL-6 and IL-1β | increased the mRNA levels of AdipoRs | the interaction of APPL1 with MyD88 was increased
